{"source": "patent US9586985B2", "about": "“Organic compounds as proantigens for natural killer T cells” (Callaghan Innovation Research Limited, priority 2012, dated 2017)", "key": {"[1]": {"assay": "HPLC-ESI-MSMS quantification of α-GalCer in test samples", "assay_type": "physicochemical", "details": "freshly reconstituted formulated sample; estimated maximum level", "description": "Quantification of the amount of α-GalCer in various test samples of compounds of the invention is made by HPLC-ESI-MSMS analysis using a Waters 2795 HPLC and a Waters Q-TOF Premier™ Tandem Mass Spectrometer. The chromatography used a Phenomenex Kinetex C18 […] 3.0×50 mm column eluting with isocratic methanol containing 10 mM ammonium formate+0.5% formic acid at a flow rate of 0.2 mL/min. α-GalCer is monitored by selective reactant monitoring of 858.7 to 696.7 Da. The estimate of amount of α-GalCer is made by comparison of ion count integrals to a standard curve run on the same day or by comparison to test samples spiked with a known amount of α-GalCer.\nThe level of α-GalCer is determined on freshly reconstituted formulated samples unless otherwise stated. The estimated maximum level of α-GalCer for key compounds is given below."}, "[2]": {"system": "cytokines IL-12p70, IL-4 and IFN-g", "assay": "Cytokine release into serum after injection (cytokine bead array)", "assay_type": "in vivo, C57BL/6 mice", "description": "Groups of C57BL/6 mice (n=3 per group) are injected intravenously with 200 ng of the indicated compounds, and then the serum is collected at the indicated times for analysis of cytokine levels by cytokine bead array technology.\nGroups of C57BL/6 mice (n=3 per group) are injected intravenously with 200 ng of α-GalCer or an equivalent molar amount of the indicated compounds, and then the serum is collected at the indicated times for analysis of cytokine levels by cytokine bead array technology. (Compound CN158A1b=CN158 formulated in accordance with Example 15; Compound CN158A=CN158 in water.)\nBlood is collected from the lateral tail vein at different time intervals after glycolipid administration. Serum is collected after blood has clotted, and levels of cytokines IL-12p70, IL-4 and IFN-g are assessed by cytokine bead array technology (Bioplex, Biorad), according to the manufacturer's instructions."}, "[3]": {"system": "human NKT cells", "assay": "Proliferation of human NKT cells in PBMC culture", "assay_type": "cell-based", "details": "7 days culture with IL-2, one donor, FIG. 6", "description": "PBMC from one donor are cultured for 7 days with different doses of the indicated compounds in the presence of IL-2, and then the percentages of NKT cells in the final cultures determined by flow cytometry with fluorescent α-GalCer-loaded CD1d tetramers and anti-CD3. Data are expressed as percentage of NKT cells (α-GalCer/CD1d tetramer and anti-CD3-binding cells) of total T cells (all anti-CD3-binding cells).\nPeripheral blood is drawn into heparinized tubes, diluted 1:1 in PBS, and layered over a sodium diatrizoate and polysaccharide solution (Lymphoprep; Axis-Shield, Oslo, Norway) before centrifugation at 800×g for 25 minutes at room temperature to collect the peripheral blood mononuclear cell (PBMC) fraction, which contains NKT cells. To assess proliferation of NKT cells, PBMC (2×10^5 per well) are cultured at 37° C. in Iscove's Modified Dulbecco's Medium with 5% human AB serum and the indicated concentrations of α-GalCer, or the compounds of the invention, with recombinant human IL-2 50 U/mL (Chiron Corporation, Emeryville, Calif.) added after 24 hours. After 7 days of culture, the cells are analysed by flow cytometry, using fluorescent soluble CD1d tetramers that have been loaded with α-GalCer to identify the NKT cells. […]"}, "[4]": {"system": "B16.OVA melanoma cells", "assay": "Anti-tumour activity against subcutaneous B16.OVA tumours, given with OVA protein", "assay_type": "in vivo, C57BL/6 mice", "details": "i.v. with 200 μg OVA protein seven days after tumour challenge", "description": "Progression of subcutaneous B16.OVA tumours is monitored in animals that are treated seven days after tumour challenge with intravenous OVA protein together with the indicated compounds, or treated with PBS. The mean tumour sizes per group (n=5)±SEM are shown.\nProgression of subcutaneous B16.OVA tumours is monitored in animals that are treated seven days after tumour challenge with intravenous OVA protein together with the indicated compounds, or treated with PBS. The mean tumour sizes per group (n=5)±SEM are shown. […] (Compound CN158A=CN158 in water.)\nGroups of C57BL/6 mice (n=5) receive a subcutaneous injection into the flank of 1×10^5 B16.OVA melanoma cells, which express a cDNA encoding the chicken ovalbumin (OVA) sequence. The different groups are treated 7 days later, when tumours are fully engrafted, by intravenous injection of one of the following; 200 μg OVA protein together with 200 ng α-GalCer, 200 μg OVA protein together with 200 ng of a compound of the invention, or PBS. Mice are monitored for tumour growth every 3-4 days, and tumour size for each group is calculated as the mean of the products of bisecting diameters (±SEM). Measurements are terminated for each group when the first animal develops a tumour exceeding 200 mm^2."}}}
{"smiles": "CCCCCCCCCCCCCCCCCCCCCCCCCC(=O)O[C@H](CCCCCCCCCCCCCC)[C@@H](O)[C@H](CO[C@H]1O[C@H](CO)[C@H](O)[C@H](O)[C@H]1O)NC(=O)OCOC(=O)C(C)(C)C", "note": "[CN145, (2S,3S,4R)-1-O-α-D-Galactopyranosyl-4-O-hexacosanoyl-2-(pivaloyloxymethoxycarbonylamino) octadecane-1,3,4-triol]", "values": [{"measurement": "Max α-GalCer (ppm)", "setting": "[1]", "value": 40, "unit": "ppm"}, {"measurement": "Max α-GalCer/injection", "setting": "[1]", "value": 0.008, "unit": "ng"}, {"measurement": "cytokine profile in vivo compared to α-GalCer", "setting": "[2]; 200 ng i.v. or molar equivalent, FIGS. 3 and 8", "value": "different cytokine profiles"}, {"measurement": "course of IL-12p70 level in serum", "setting": "[2]; 200 ng i.v., FIG. 3", "value": "still increasing through 6 to 12 h"}, {"measurement": "ratio of IFN-γ to IL-4 in serum compared to α-GalCer", "setting": "[2]; 200 ng i.v., FIG. 3", "value": "higher ratio of IFN-γ to IL-4 than that of α-GalCer"}, {"measurement": "overall levels of systemic cytokine production", "setting": "[2]; 200 ng α-GalCer or equivalent i.v., FIGS. 3 and 8", "value": "not as potent as α-GalCer in terms of overall levels of cytokine production"}, {"measurement": "expansion of human NKT cells from PBMC", "setting": "[3]", "value": "able to induce the expansion of human NKT cells"}, {"measurement": "anti-tumour activity: growth of established B16.OVA tumours", "setting": "[4]", "value": "equally beneficial in promoting immune responses that suppress growth of established tumours"}]}
